Experiments:
RAO horses [1] = experiment: 1st ciclesonide study: moldy hay challenge, lung function variables and breathing effort score; assay type: in vivo; conditions: after 14 days
[2] = Plasma level of ciclesonide and C21-C21-desisobutyrylciclesonide (HPLC-MS/MS), 2nd ciclesonide study; conditions: for concentration at 0 min / concentration at 10 min / concentration at 30 min / concentration at 1 h / concentration at 2 h / concentration at 4 h: horse, plasma, inhaled
RAO horses [3] = experiment: Segmented neutrophil and lymphocyte counts in the 1st and 2nd ciclesonide studies; assay type: in vivo; conditions: for Lymphocytes / Segmented neutrophils: mean, n=8
Method: (§1) The commercially available […]® is used in the study.
The segmented neutrophil counts and the lymphocyte counts are determined in the studies above: ciclesonide treatment versus dexamethasone treatment.
Concentration of segmented neutrophils and lymphocytes on day (D): D0, D14 and D21 in the treatment groups of dexamethasone and different doses of ciclesonide (n=8) (mean (SEM)

RAO horses [4] = experiment: 2nd ciclesonide study: moldy hay challenge, serum cortisol; assay type: in vivo; conditions: any ciclesonide group (1687.5/2700 A/2700 B μg twice daily); any measured time point
Source text: as §1

RAO horses [5] = experiment: 2nd ciclesonide study: moldy hay challenge, lung function variables and weighted clinical score; assay type: in vivo
Source text: as §1

RAO horses [6] = experiment: 1st ciclesonide study: moldy hay challenge, serum cortisol; assay type: in vivo; conditions: any ciclesonide group (450/900/1800 μg/horse twice daily); any measured time point
RAO horses [7] = experiment: 3rd ciclesonide study: moldy hay challenge, lung function variables; assay type: in vivo; conditions: ciclesonide 2700 μg twice daily / 3712.5 μg once daily morning / 3712.5 μg once daily evening, inhalation, nozzle B; after 14 days
Source text: The horses are challenged by exposure to moldy hay to throughout the whole study.

[8] = 1687.5 μg/horse, Ciclesonide concentration (plasma), ciclesonide 1687.5 μg (nozzle B) twice daily per inhalation, day 1
[9] = 1687.5 μg/horse, Ciclesonide concentration (plasma), ciclesonide 1687.5 μg (nozzle B) twice daily per inhalation, day 11
[10] = 2700 μg/horse, Ciclesonide concentration (plasma), ciclesonide 2700 μg A (nozzle A) twice daily per inhalation, day 1
[11] = 2700 μg/horse, Ciclesonide concentration (plasma), ciclesonide 2700 μg A (nozzle A) twice daily per inhalation, day 11
[12] = 2700 μg/horse, Ciclesonide concentration (plasma), ciclesonide 2700 μg B (nozzle B) twice daily per inhalation, day 1
[13] = 2700 μg/horse, Ciclesonide concentration (plasma), ciclesonide 2700 μg B (nozzle B) twice daily per inhalation, day 11
[14] = 450 μg ciclesonide/horse twice daily 14 days per inhalation (nozzle A), 1st study, D 0
[15] = 450 μg ciclesonide/horse twice daily 14 days per inhalation (nozzle A), 1st study, D 14
[16] = 450 μg ciclesonide/horse twice daily 14 days per inhalation (nozzle A), 1st study, D 21
[17] = 900 μg ciclesonide/horse twice daily 14 days per inhalation (nozzle A), 1st study, D 0
[18] = 900 μg ciclesonide/horse twice daily 14 days per inhalation (nozzle A), 1st study, D 14
[19] = 900 μg ciclesonide/horse twice daily 14 days per inhalation (nozzle A), 1st study, D 21
[20] = 1687.5 μg ciclesonide/horse twice daily 14 days per inhalation (nozzle B), 2nd study, D 0
[21] = 1687.5 μg ciclesonide/horse twice daily 14 days per inhalation (nozzle B), 2nd study, D 14
[22] = 1687.5 μg ciclesonide/horse twice daily 14 days per inhalation (nozzle B), 2nd study, D 21
[23] = 1800 μg ciclesonide/horse twice daily 14 days per inhalation (nozzle A), 1st study, D 0
[24] = 1800 μg ciclesonide/horse twice daily 14 days per inhalation (nozzle A), 1st study, D 14
[25] = 1800 μg ciclesonide/horse twice daily 14 days per inhalation (nozzle A), 1st study, D 21
[26] = 2700 μg ciclesonide A (nozzle A)/horse twice daily 14 days per inhalation, 2nd study, D 0
[27] = 2700 μg ciclesonide A (nozzle A)/horse twice daily 14 days per inhalation, 2nd study, D 14
[28] = 2700 μg ciclesonide A (nozzle A)/horse twice daily 14 days per inhalation, 2nd study, D 21
[29] = 2700 μg ciclesonide B (nozzle B)/horse twice daily 14 days per inhalation, 2nd study, D 0
[30] = 2700 μg ciclesonide B (nozzle B)/horse twice daily 14 days per inhalation, 2nd study, D 14
[31] = 2700 μg ciclesonide B (nozzle B)/horse twice daily 14 days per inhalation, 2nd study, D 21
[32] = 1st ciclesonide study, after administration of ciclesonide 450/900/1800 μg twice daily
[33] = 2nd ciclesonide study, after administration of ciclesonide 1687.5/2700 μg twice daily

SMILES: CC(C)C(=O)OCC(=O)[C@@]12O[C@H](C3CCCCC3)O[C@@H]1C[C@H]1[C@@H]3CCC4=CC(=O)C=C[C@]4(C)[C@H]3[C@@H](O)C[C@@]12C [ciclesonide, (11β,16α)-16,17-[[(R)-Cyclohexylmethylene]bis(oxy)]-11-hydroxy-21-(2-methyl-1-oxopropoxy)pregna-1,4-diene-3,20-dione]
- ΔPL and EL compared to pretreatment values (RAO horses [1]; ciclesonide 1800 μg/horse ex RESPIMAT twice daily per inhalation, p=0.0005 and p=0.0004): statistically significant reduction
- ΔPL and EL, difference to dexamethasone group (RAO horses [1]; ciclesonide 1800 μg/horse ex RESPIMAT twice daily): no significant difference
- Ciclesonide concentration (plasma) ([2]; ciclesonide 1687.5 μg (nozzle B) twice daily per inhalation, day 11, 2 h): <0.500 nmol/L
- Ciclesonide concentration (plasma) ([2]; ciclesonide 1687.5 μg (nozzle B) twice daily per inhalation, day 11, 4 h): <0.500 nmol/L
- concentration at 0 min [2, 8]: < 0.5 nM
- concentration at 10 min [2, 8]: 0.87 nM
- concentration at 30 min [2, 8]: < 0.5 nM
- concentration at 1 h ([2]; 1687.5 μg/horse, Ciclesonide concentration (plasma), ciclesonide 1687.5 μg (nozzle B) twice daily per inhalation, day 1, 1 h): < 0.5 nM
- concentration at 2 h ([2]; 1687.5 μg/horse, Ciclesonide concentration (plasma), ciclesonide 1687.5 μg (nozzle B) twice daily per inhalation, day 1, 2 h): < 0.5 nM
- concentration at 4 h ([2]; 1687.5 μg/horse, Ciclesonide concentration (plasma), ciclesonide 1687.5 μg (nozzle B) twice daily per inhalation, day 1, 4 h): < 0.5 nM
- concentration at 0 min [2, 9]: < 0.5 nM
- concentration at 10 min [2, 9]: 0.97 nM
- concentration at 30 min [2, 9]: < 0.5 nM
- concentration at 1 h ([2]; 1687.5 μg/horse, Ciclesonide concentration (plasma), ciclesonide 1687.5 μg (nozzle B) twice daily per inhalation, day 11, 1 h): < 0.5 nM
- concentration at 0 min [2, 10]: < 0.5 nM
- concentration at 10 min [2, 10]: 1.19 nM
- concentration at 30 min [2, 10]: 0.51 nM
- concentration at 1 h ([2]; 2700 μg/horse, Ciclesonide concentration (plasma), ciclesonide 2700 μg A (nozzle A) twice daily per inhalation, day 1, 1 h): < 0.5 nM
- concentration at 2 h ([2]; 2700 μg/horse, Ciclesonide concentration (plasma), ciclesonide 2700 μg A (nozzle A) twice daily per inhalation, day 1, 2 h): < 0.5 nM
- concentration at 4 h ([2]; 2700 μg/horse, Ciclesonide concentration (plasma), ciclesonide 2700 μg A (nozzle A) twice daily per inhalation, day 1, 4 h): < 0.5 nM
- concentration at 0 min [2, 11]: < 0.5 nM
- concentration at 10 min [2, 11]: 1.02 nM
- concentration at 30 min [2, 11]: 0.63 nM
- concentration at 1 h ([2]; 2700 μg/horse, Ciclesonide concentration (plasma), ciclesonide 2700 μg A (nozzle A) twice daily per inhalation, day 11, 1 h): < 0.5 nM
- concentration at 2 h ([2]; 2700 μg/horse, Ciclesonide concentration (plasma), ciclesonide 2700 μg A (nozzle A) twice daily per inhalation, day 11, 2 h): < 0.5 nM
- concentration at 4 h ([2]; 2700 μg/horse, Ciclesonide concentration (plasma), ciclesonide 2700 μg A (nozzle A) twice daily per inhalation, day 11, 4 h): < 0.5 nM
- concentration at 0 min [2, 12]: < 0.5 nM
- concentration at 10 min [2, 12]: 1.16 nM
- concentration at 30 min [2, 12]: 0.72 nM
- concentration at 1 h ([2]; 2700 μg/horse, Ciclesonide concentration (plasma), ciclesonide 2700 μg B (nozzle B) twice daily per inhalation, day 1, 1 h): < 0.5 nM
- concentration at 2 h ([2]; 2700 μg/horse, Ciclesonide concentration (plasma), ciclesonide 2700 μg B (nozzle B) twice daily per inhalation, day 1, 2 h): < 0.5 nM
- concentration at 4 h ([2]; 2700 μg/horse, Ciclesonide concentration (plasma), ciclesonide 2700 μg B (nozzle B) twice daily per inhalation, day 1, 4 h): < 0.5 nM
- concentration at 0 min [2, 13]: < 0.5 nM
- concentration at 10 min [2, 13]: 1.38 nM
- concentration at 30 min [2, 13]: 0.63 nM
- concentration at 1 h ([2]; 2700 μg/horse, Ciclesonide concentration (plasma), ciclesonide 2700 μg B (nozzle B) twice daily per inhalation, day 11, 1 h): < 0.5 nM
- concentration at 2 h ([2]; 2700 μg/horse, Ciclesonide concentration (plasma), ciclesonide 2700 μg B (nozzle B) twice daily per inhalation, day 11, 2 h): < 0.5 nM
- concentration at 4 h ([2]; 2700 μg/horse, Ciclesonide concentration (plasma), ciclesonide 2700 μg B (nozzle B) twice daily per inhalation, day 11, 4 h): < 0.5 nM
- concentration at 1 h ([2]; concentration of ciclesonide in plasma, samples taken 1 h after drug administration, below lower limit of quantification): < 0.5 nM
- conversion of the prodrug into the effective molecule C21-C21-desisobutyrylciclesonide ([2]; in horses (example 5)): can be converted
- Lymphocytes (RAO horses [3]; [14]): 1.96e+09 L⁻¹
- Segmented neutrophils (RAO horses [3]; [14]): 4.66e+09 L⁻¹
- Lymphocytes (RAO horses [3]; [15]): 1.97e+09 L⁻¹
- Segmented neutrophils (RAO horses [3]; [15]): 4.98e+09 L⁻¹
- Lymphocytes (RAO horses [3]; [16]): 2.17e+09 L⁻¹
- Segmented neutrophils (RAO horses [3]; [16]): 5.48e+09 L⁻¹
- Lymphocytes (RAO horses [3]; [17]): 1.85e+09 L⁻¹
- Segmented neutrophils (RAO horses [3]; [17]): 5.24e+09 L⁻¹
- Lymphocytes (RAO horses [3]; [18]): 2.03e+09 L⁻¹
- Segmented neutrophils (RAO horses [3]; [18]): 4.43e+09 L⁻¹
- Lymphocytes (RAO horses [3]; [19]): 1.94e+09 L⁻¹
- Segmented neutrophils (RAO horses [3]; [19]): 4.91e+09 L⁻¹
- Lymphocytes (RAO horses [3]; [20]): 1.93e+09 L⁻¹
- Segmented neutrophils (RAO horses [3]; [20]): 4.51e+09 L⁻¹
- Lymphocytes (RAO horses [3]; [21]): 1.94e+09 L⁻¹
- Segmented neutrophils (RAO horses [3]; [21]): 5.22e+09 L⁻¹
- Lymphocytes (RAO horses [3]; [22]): 2.04e+09 L⁻¹
- Segmented neutrophils (RAO horses [3]; [22]): 4.55e+09 L⁻¹
- Lymphocytes (RAO horses [3]; [23]): 1.95e+09 L⁻¹
- Segmented neutrophils (RAO horses [3]; [23]): 4.6e+09 L⁻¹
- Lymphocytes (RAO horses [3]; [24]): 1.96e+09 L⁻¹
- Segmented neutrophils (RAO horses [3]; [24]): 5.41e+09 L⁻¹
- Lymphocytes (RAO horses [3]; [25]): 2.06e+09 L⁻¹
- Segmented neutrophils (RAO horses [3]; [25]): 4.93e+09 L⁻¹
- Lymphocytes (RAO horses [3]; [26]): 2.04e+09 L⁻¹
- Segmented neutrophils (RAO horses [3]; [26]): 4.91e+09 L⁻¹
- Lymphocytes (RAO horses [3]; [27]): 2.14e+09 L⁻¹
- Segmented neutrophils (RAO horses [3]; [27]): 4.85e+09 L⁻¹
- Lymphocytes (RAO horses [3]; [28]): 2.01e+09 L⁻¹
- Segmented neutrophils (RAO horses [3]; [28]): 4.41e+09 L⁻¹
- Lymphocytes (RAO horses [3]; [29]): 1.8e+09 L⁻¹
- Segmented neutrophils (RAO horses [3]; [29]): 4.23e+09 L⁻¹
- Lymphocytes (RAO horses [3]; [30]): 1.74e+09 L⁻¹
- Segmented neutrophils (RAO horses [3]; [30]): 4.75e+09 L⁻¹
- Lymphocytes (RAO horses [3]; [31]): 2.01e+09 L⁻¹
- Segmented neutrophils (RAO horses [3]; [31]): 4.84e+09 L⁻¹
- counts of lymphocytes (RAO horses [3]; [32]): no change
- counts of segmented neutrophils (RAO horses [3]; [32]): no or minor increase
- counts of lymphocytes (RAO horses [3]; [33]): no change
- counts of segmented neutrophils (RAO horses [3]; [33]): no or minor increase
- alteration in the immune system measured by neutrophilia and lymphopenia (RAO horses [3]; treatment for two weeks with different dose levels of ciclesonide): no alteration is observed
- serum cortisol levels (RAO horses [4]): no significant reduction
- all lung function variables (ΔPL, RL, EL) compared to pretreatment values (RAO horses [5]; all ciclesonide groups (1687.5 μg nozzle B/2700 μg nozzle A/2700 μg nozzle B twice daily), after 14 days, p=0.0009 to p<0.0001): significantly reduced
- lung function variables, difference to dexamethasone group (RAO horses [5]; all ciclesonide groups (1687.5/2700 A/2700 B μg twice daily), after 7 or 14 days): no significant difference
- weighted clinical score compared to pretreatment values (RAO horses [5]; all three ciclesonide groups (1687.5/2700 A/2700 B μg twice daily), after 14 days, p=0.0001 to p<0.0001): significantly reduced
- weighted clinical score, difference to dexamethasone group (RAO horses [5]; ciclesonide treatment groups (1687.5/2700 A/2700 B μg twice daily), after 14 days): no significant difference
- serum cortisol levels (RAO horses [6]): no significant reduction
- lung function variables (ΔPL, RL, EL) compared to pretreatment values and to placebo group (RAO horses [7]): significantly reduced
